The first data set in a line: log P by HPLC on reversed-phase column (EEC directive 79/831 Annex V.A8). In kind it is physicochemical.
Details: not given
As for the experimental part: a) The determination of the [M+H]^+ by LC-MS in the acidic range was effected at pH 2.7, with acetonitrile (containing 0.1% formic acid) and water as eluents; linear gradient from 10% acetonitrile to 95% acetonitrile, instrument: Agilent 1100 LC system, Agilent MSD system, HTS PAL.
The log P values reported in the tables and preparation examples above were determined in accordance with EEC directive 79/831 Annex V.A8 by HPLC (High Performance Liquid Chromatography) using a reversed-phase column (C18). Temperature 43° C.
By chromatographic logP is commonly meant lipophilicity estimated from chromatographic retention. Compound `CCNCC(=O)c1c([O-])n(Cc2cnc(Cl)s2)c2cccc[n+]12` [Example I-1-021, 1-[(2-Chloro-1,3-thiazol-5-yl)methyl]-3-(N-ethylglycyl)-1H-imidazo[1,2-a]pyridin-4-ium-2-olate] yielded a chromatographic logP of 0.57.

The compound `Clc1ccc(CNc2ncccn2)cn1` [N-[(6-chloropyridin-3-yl)methyl]pyrimidin-2-amine] yielded a chromatographic logP of 1.36.

The data set is the same for the next values; noted with them: HPLC on reversed-phase column.
On to `Cc1ccc[n+]2c(C(=O)NCC3CCCC3)c([O-])n(Cc3ccc(Cl)nc3)c12` [Example I-1-256], for which the “log p a)” value is 2.8.

As to `Cc1cnc(NC(=O)c2c([O-])n(Cc3ccc(Cl)nc3)c3cccc[n+]23)s1` [Example I-1-327], the “log p a)” value was found to be 2.17.

For `COc1cc(NC(=O)c2c([O-])n(Cc3ccc(Cl)nc3)c3cccc[n+]23)ccn1` [Example I-1-329], the “log p a)” value was 1.41.

Consider `Cc1cccc(F)c1NC(=O)c1c([O-])n(Cc2cnc(Cl)s2)c2cccc[n+]12` [Example I-1-322], for which the “log p a)” value came to 3.1.

Take `O=C(Nc1nccs1)c1c([O-])n(Cc2ccc(Cl)nc2)c2cccc[n+]12` [Example I-1-324]: the “log p a)” value is 1.93.

Take `Cc1cnc(Cn2c([O-])c(C(=O)NCC(F)(F)F)[n+]3ccccc23)cn1` [Example I-1-242]: the “log p a)” value amounted to 1.57.

Turning to `CNC(=O)c1c([O-])n(Cc2cnc(Cl)cn2)c2cccc[n+]12` [Example I-1-280], the “log p a)” value was 1.15.

For the compound `O=C(Nc1ncccc1Br)c1c([O-])n(Cc2cnc(Cl)s2)c2cccc[n+]12` [Example I-1-335], the “log p a)” value amounted to 1.58.

Take `O=C(Nc1ncccc1[N+](=O)[O-])c1c([O-])n(Cc2cnc(Cl)s2)c2cccc[n+]12` [Example I-1-320]: the “log p a)” value was found to be 1.91.

In the case of `Cn1nccc1NC(=O)c1c([O-])n(Cc2cnc(Cl)s2)c2cccc[n+]12` [Example I-1-330], the “log p a)” value came out at 1.6.

For the compound `Cn1ncc(Br)c1NC(=O)c1c([O-])n(Cc2cnc(Cl)s2)c2cccc[n+]12` [Example I-1-332], the “log p a)” value came to 1.99.

For the compound `O=C(Nc1cccc(OC(F)(F)F)c1)c1c([O-])n(Cc2ccc(Cl)nc2)c2cccc[n+]12` [Example I-1-298], the “log p a)” value came out at 3.55.

`Cc1ccc[n+]2c(C(=O)NC3(C#N)CCCCC3)c([O-])n(Cc3ccc(Cl)nc3)c12` [Example I-1-263]: the “log p a)” value came out at 2.62.

As for `O=C(Nc1nccs1)c1c([O-])n(Cc2cnc(Cl)s2)c2cccc[n+]12` [Example I-1-318], the “log p a)” value stood at 2.05.

Take `O=C(Nc1ncccc1C(F)(F)F)c1c([O-])n(Cc2cnc(Cl)s2)c2cccc[n+]12` [Example I-1-336]: the “log p a)” value was 1.99.

For the compound `CSc1ccc[n+]2c(C(=O)NC3CC3)c([O-])n(Cc3ccc(Cl)nc3)c12` [Example I-1-204], the “log p a)” value is 2.05.

`O=C(Nc1c(Cl)ncnc1Cl)c1c([O-])n(Cc2cnc(Cl)s2)c2cccc[n+]12` [Example I-1-331]: the “log p a)” value worked out at 2.17.

Staying with this data set, now noted: HPLC on reversed-phase column (footnote a).
With `COCC(=O)c1c([O-])n(Cc2ccc(Cl)nc2)c2cc(C(F)(F)F)cc[n+]12` [Example I-1-069], the log p was determined as 1.99.

On to `O=C(CCl)c1c([O-])n(Cc2ccc(Cl)nc2)c2cc(C(F)(F)F)cc[n+]12` [Example I-1-063], for which the log p is listed as 2.52.

In the case of `O=C(Nc1ccc(Cl)nc1)c1c([O-])n(Cc2cnc(Cl)s2)c2cccc[n+]12` [Example I-1-153], the log p stood at 3.06.

`Cc1ccc[n+]2c(C(=O)Cn3cc(Cl)cn3)c([O-])n(Cc3cnc(Cl)s3)c12` [Example I-1-095] came in with a log p of 2.27.

`COC(=O)c1c([O-])n(Cc2ccc(Cl)nc2)c2c(F)cc(F)c[n+]12` [Example I-1-156] returned a log p of 1.56.

Compound `O=C(COc1cccc(Cl)c1)c1c([O-])n(Cc2cnc(Cl)s2)c2cccc[n+]12` [Example I-1-073] returned a log p of 2.87.

The compound `Cc1ccc2n(Cc3ccc(Cl)nc3)c([O-])c(C(=O)Cn3cccn3)[n+]2c1` [Example I-1-104] yielded a log p of 1.63.

Take `COCC(=O)c1c([O-])n(Cc2cnc(Cl)s2)c2cc(Cl)cc[n+]12` [Example I-1-123]: the log p is given as 1.90.

In turn, `O=C(COc1ccccc1)c1c([O-])n(Cc2ccc(Cl)nc2)c2cccc[n+]12` [Example I-1-007] returned a log p of 2.2.

Take `CCNCC(=O)c1c([O-])n(Cc2ccc(Cl)nc2)c2cccc[n+]12` [Example I-1-024]: the log p turned out to be 0.42.

In turn, `O=C(Cn1cccn1)c1c([O-])n(Cc2ccc(Cl)nc2)c2cc(C(F)(F)F)cc[n+]12` [Example I-1-102] registered a log p of 2.08.

For the compound `O=C(CCl)c1c([O-])n(Cc2cnc(Cl)s2)c2cc(Cl)cc[n+]12` [Example I-1-120], the log p is reported as 2.17.

As to `COC(=O)c1c([O-])n(Cc2ccc(Cl)nc2)c2c(C)ccc[n+]12` [Example I-1-183], the log p came to 1.66.

As for `O=C(NC1CC1)c1c([O-])n(Cc2cnc(Cl)s2)c2c(Cl)ccc[n+]12` [Example I-1-140], the log p is 2.01.

On to `O=C(NCCc1ccc(Cl)cc1)c1c([O-])n(Cc2cnc(Cl)s2)c2cccc[n+]12` [Example I-1-139], for which the log p was found to be 3.

`Cc1ccc[n+]2c(C(=O)Nc3ccc(Cl)cc3)c([O-])n(Cc3ccc(Cl)nc3)c12` [Example I-1-187] had a log p of 3.41.

The compound `N#Cc1cc[n+]2c(C(=O)CCl)c([O-])n(Cc3ccc(Cl)nc3)c2c1` [Example I-1-067] gave a log p of 1.83.

`O=C(NC1CC1)c1c([O-])n(Cc2cnc(Cl)s2)c2cc(Cl)cc[n+]12` [Example I-1-184] yielded a log p of 2.14.

In turn, `O=C(CCl)c1c([O-])n(Cc2ccc(Cl)nc2)c2ccc(F)c[n+]12` [Example I-1-099] yielded a log p of 1.78.

`COC(=O)c1c([O-])n(Cc2ccc(Cl)nc2)c2cc(C(F)(F)F)cc[n+]12` [Example I-1-132] had a log p of 1.93.

Turning to `O=C(CCl)c1c([O-])n(Cc2cncc(Cl)c2)c2cccc[n+]12` [Example I-1-162], the log p is 1.53.

On to `O=C(Cn1cccn1)c1c([O-])n(Cc2ccc(Cl)nc2)c2c(F)ccc[n+]12` [Example I-1-105], for which the log p is on record as 1.55.

In turn, `O=C(NC1CC1)c1c([O-])n(Cc2ccc(Cl)nc2)c2c(F)ccc[n+]12` [Example I-1-127] came in with a log p of 1.82.

With `O=C(CCl)c1c([O-])n(Cc2ccc(Cl)nc2)c2c(Cl)ccc[n+]12` [Example I-1-090], the log p amounted to 1.99.

On to `O=C(Cn1ccnc1)c1c([O-])n(Cc2cnc(Cl)s2)c2cccc[n+]12` [Example I-1-050], for which the log p is 0.46.

Turning to `CNCC(=O)c1c([O-])n(Cc2cnc(Cl)s2)c2cccc[n+]12` [Example I-1-058], the log p is 0.31.

In the case of `O=C(NC1CC1)c1c([O-])n(Cc2cnc(Cl)s2)c2cc(C(F)(F)F)cc[n+]12` [Example I-1-141], the log p amounted to 2.38.

Turning to `COC(=O)COCC(=O)c1c([O-])n(Cc2ccc(Cl)nc2)c2cccc[n+]12` [Example I-1-030], the log p stood at 1.31.

In turn, `O=C(NCc1ccc(Cl)cc1)c1c([O-])n(Cc2cnc(Cl)s2)c2cccc[n+]12` [Example I-1-149] yielded a log p of 2.86.

The compound `O=C(CCl)c1c([O-])n(Cc2ccc(Cl)nc2)c2c(F)ccc[n+]12` [Example I-1-100] gave a log p of 1.81.

Staying with this data set, now noted: pH 2.7.
Compound `CCNCC(=O)c1c([O-])n(Cc2cnc(Cl)s2)c2cccc[n+]12` [Example I-1-021, 1-[(2-Chloro-1,3-thiazol-5-yl)methyl]-3-(N-ethylglycyl)-1H-imidazo[1,2-a]pyridin-4-ium-2-olate] returned a chromatographic logP of 0.57.

The values are drawn from patent publication US20180282323A1, “Mesoionic imidazole derivatives as insecticides” (BAYER CROPSCIENCE AKTIENGESELLSCHAFT, priority 2015, published 2018).
